Measured values: patent US20040235733A1, “Methods and reagents for reducing polyglutamine toxicity” (priority 2003, published 2004)
“Also recorded” adds a separate entry of the source.

Biological target: T1, CRM-1 export receptor (Mus musculus, UniProt Q6P5F9)
T1 construct: NIH-3T3 cells were transfected with the indicated GFP reporter constructs; endogenous in cells; host or cells: NIH-3T3
Test: Leptomycin B Nuclear Export Signal Assay (GFP reporter localization by confocal microscopy)
Type: cell-based
Settings: NIH-3T3 cells, 24 hrs post-transfection, 200 nM Leptomycin B for 2 hrs
Protocol: The Leptomycin B Nuclear Export Signal Assay used NIH-3T3 cells grown on glass coverslips (Fisher) and transfected using Lipofectamine 2000 according to the manufacturers protocol. Cells 24 hrs post-transfection were treated with 200 nM Leptomycin B (Sigma) or DMSO (Mock) for 2 hrs. Cells were fixed with 3% PFA and mounted using ProLong (Molecular Probes) mounting medium. Confocal microscopy was performed on a Zeiss LSM 510 confocal system using an Axiovert 100 M microscope and a Plan/Apochromat 100×/Oil objective.

T1 sequence (Q6P5F9 whole entry): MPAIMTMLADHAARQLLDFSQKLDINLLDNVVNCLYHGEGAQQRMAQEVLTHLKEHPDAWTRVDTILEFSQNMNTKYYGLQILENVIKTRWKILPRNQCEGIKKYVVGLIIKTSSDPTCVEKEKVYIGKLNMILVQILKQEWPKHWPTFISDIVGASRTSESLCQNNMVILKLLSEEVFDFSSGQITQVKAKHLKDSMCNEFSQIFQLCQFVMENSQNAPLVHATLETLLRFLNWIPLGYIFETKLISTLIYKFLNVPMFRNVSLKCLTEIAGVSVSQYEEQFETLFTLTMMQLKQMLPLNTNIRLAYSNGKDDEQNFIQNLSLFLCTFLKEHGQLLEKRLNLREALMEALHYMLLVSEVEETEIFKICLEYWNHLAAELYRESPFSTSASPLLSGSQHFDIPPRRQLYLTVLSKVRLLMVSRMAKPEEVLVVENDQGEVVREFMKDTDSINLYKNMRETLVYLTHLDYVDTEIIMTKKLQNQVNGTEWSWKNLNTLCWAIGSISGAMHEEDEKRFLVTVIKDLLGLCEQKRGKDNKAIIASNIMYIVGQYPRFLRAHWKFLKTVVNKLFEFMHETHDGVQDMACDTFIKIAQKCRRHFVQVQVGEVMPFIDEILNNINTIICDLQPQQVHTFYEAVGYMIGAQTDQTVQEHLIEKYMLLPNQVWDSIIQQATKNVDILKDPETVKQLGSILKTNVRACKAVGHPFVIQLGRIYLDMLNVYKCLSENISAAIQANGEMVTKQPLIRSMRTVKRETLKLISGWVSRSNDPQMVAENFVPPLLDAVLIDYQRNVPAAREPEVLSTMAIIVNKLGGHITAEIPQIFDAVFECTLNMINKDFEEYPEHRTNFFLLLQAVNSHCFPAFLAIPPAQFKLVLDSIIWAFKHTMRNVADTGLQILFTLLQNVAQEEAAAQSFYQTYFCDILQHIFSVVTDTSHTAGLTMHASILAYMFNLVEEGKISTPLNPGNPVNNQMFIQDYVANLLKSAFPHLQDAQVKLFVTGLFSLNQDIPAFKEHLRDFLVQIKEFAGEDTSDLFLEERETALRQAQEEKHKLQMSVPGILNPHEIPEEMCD

Question: Which “effect on localization of GFP or NLS-GFP” value does the source give for `CCC(=C/[C@H](C)C/C=C/C(C)=C/[C@@H](C)C(=O)[C@@H](C)[C@H](O)[C@@H](C)C/C(C)=C/C(=O)O)/C=C/[C@@H]1OC(=O)C=C[C@@H]1C` [LMB, Leptomycin B] here?
Answer: unaffected

Question: What about the “effect on nuclear exclusion (cytoplasmic localization) of Htt 1-17-NLS-GFP” value of the same molecule?
Answer: unaffected; also recorded: no effect

Question: What about the “effect on nuclear exclusion of control NES-GFP” value of the same molecule?
Answer: quite sensitive; also recorded: efficiently reversed
